Key:
[1] = target: T1, σ1 receptor (Cavia porcellus, UniProt Q60492); assay: σ1 receptor binding assay, [3H](+)-pentazocine competition; details: guinea pig brain membrane homogenates, ~5 nM [3H](+)-pentazocine; mean ± SEM; read-out: σ1 binding affinity (Ki)
T1 construct: using guinea pig brain membrane homogenates (˜300 μg protein); from tissue; host or cells: guinea pig brain membrane homogenate
Protocol: (§1) This example illustrates in vitro binding studies with the compounds of the present teachings. In this example, in vitro binding studies can be conducted in order to measure the affinity of the target compounds for σ1 and σ2 receptors.
(§2) In these assays, pegylated sigma ligands of the present teachings can be dissolved in N,N-dimethylformamide (DMF), DMSO or ethanol, and can then be diluted in 50 mM Tris-HCl buffer containing 150 mM NaCl and 100 mM EDTA at pH 7.4 prior to performing σ1 and σ2 receptor binding assays Procedures for isolating the membrane homogenates and performing the σ1 and σ2 receptor binding assays have been described in detail previously (Xu, J., et al., Eur. J. Pharmacol. […] (1-3): 8-17, 2005). Briefly, the σ1 receptor binding assays can be conducted in 96-well plates using guinea pig brain membrane homogenates (˜300 μg protein) and ˜5 nM [^3H](+)-pentazocine (34.9 Ci/mmol, Perkin Elmer, Boston, Mass.). The total incubation time can be 90 min at room temperature. Nonspecific binding can be determined from samples that contain 10 μM of cold haloperidol. After 90 min, the reaction can be terminated by the addition of 150 μL of ice-cold wash buffer (10 mM Tris-HCl, 150 mM NaCl, pH 7.4) using a 96 channel transfer pipette (Fisher Scientific, Pittsburgh, Pa.). The samples can be harvested and filtered rapidly through a 96-well fiber glass filter plate (Millipore, Billerica, Mass.) that has been presoaked with 100 μL of 50 mM Tris-HCl buffer at pH 8.0 for 1 h. Each filter can be washed 3 times with 200 μL of ice-cold wash buffer, and the filter can be counted in a Wallac 1450 MicroBeta liquid scintillation counter (Perkin Elmer, Boston, Mass.).
(§3) Data from the competitive inhibition experiments can be modeled using nonlinear regression analysis to determine the concentration that inhibits 50% of the specific binding of the radioligand (IC50 value). Competitive curves can be best fit to a one-site fit and give pseudo-Hill coefficients of 0.6-1.0. Ki values can be calculated using the method of Cheng and Prusoff (Biochem. Pharmacol. 22: 3099-3108, 1973) and can be presented as the mean±1 SEM. For these calculations, one can use a Kd value of 7.89 nM for [^3H](+)-pentazocine and guinea pig brain; for [^3H]DTG and rat liver, for example 30.73 nM.

[2] = target: T2, σ2 receptor (Rattus norvegicus, UniProt Q5U3Y7); assay: σ2 receptor binding assay, [3H]DTG competition in the presence of (+)-pentazocine; details: for Ki: rat liver membrane homogenates, ~5 nM [3H]DTG with 1 μM (+)-pentazocine, mean ± SEM, read-out: σ2 binding affinity (Ki); for Ratio (σ1/σ2): ratio of Ki σ1 to Ki σ2
T2 construct: using rat liver membrane homogenates (˜300 μg protein); from tissue; host or cells: rat liver membrane homogenate
T2 sequence (Q5U3Y7 1-176): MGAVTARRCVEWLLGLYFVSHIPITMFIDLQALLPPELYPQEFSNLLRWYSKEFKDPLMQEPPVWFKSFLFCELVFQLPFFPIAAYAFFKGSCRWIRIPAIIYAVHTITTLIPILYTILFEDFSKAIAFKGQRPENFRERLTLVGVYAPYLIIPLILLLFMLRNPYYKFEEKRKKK
Protocol: as §1, §2
σ2 receptor binding assays can be conducted using rat liver membrane homogenates (˜300 μg protein) and ˜5 nM [^3H]DTG (58.1 Ci/mmol, Perkin Elmer, Boston, Mass.) in the presence of 1 μM (+)-pentazocine. The incubation time can be […] at room temperature. Nonspecific binding can be determined from samples that contain 10 μM of cold haloperidol. All other procedures can be identical to those described for the σ1 receptor binding assay above.
as §3

[3] = test system: EMT-6 mouse mammary adenocarcinoma tumor; assay: Biodistribution / tumor uptake of 18F-labeled compounds in tumor-bearing mice; type: in vivo; details: EMT-6 tumor-bearing female Balb/c mice, versus non-pegylated analog (m=1; X1=H; X2=Br), FIG. 2
Protocol: This example illustrates in vivo evaluation of compounds of the present teachings. All animal experiments can be conducted in compliance with the Guidelines for the Care and Use of Research Animals established by Washington University's Animal Studies Committee. EMT-6 mouse mammary adenocarcinoma cells (5×10^5 cells in 100 uL of phosphate-buffered saline) can be implanted subcutaneously in the scapular region of female Balb/c mice (˜2-month old and 17-22 g; Charles River Laboratories). The biodistribution studies can be initiated 7-10 days after implantation when the tumor size can be ˜0.2 cm^3 (˜200 mg).
For biodistribution studies, 10-120 μCi of an [^18F]-radiolabeled pegylated compound of the present teachings in 100-150 uL of saline can be injected via the tail vein into EMT-6 tumor-bearing female Balb/c mice. Groups of at least 4 mice can be used for each time point. At 5, 30, 60, and 120 min after injection, the mice can be euthanized, and samples of blood, lung, liver, kidney, muscle, fat, heart, brain, bone and tumor can be removed, weighed and counted in a Beckman Gamma 8000 well counter. After counting, the percentage of the injected dose per gram of tissue (% ID/g) can be calculated. The tumor/organ ratios can be calculated by dividing the % ID/g of the tumor by the % ID/g of each organ.
This example illustrates tumor uptake of ^18F-labeled pegylated compounds 6c, 6d and 6g versus a nonpegylated analog (m=1; X1=H; X2=Br).
In these experiments, various ^18F-labeled pegylated compounds of the present teachings as well as a non-pegylated analog were administered to tumor-bearing mice as described in Example 22. The pegylated compounds tested,
[drawing 27] were 6c (m=2; X1=H; X2=Br), 6d (m=3; X1=H; X2=Br) and 6g (m=2; X1=OCH3; X2=Br). A non-pegylated analog (m=1; X1=H; X2=Br) was also tested.

[4] = target: σ1 receptors (Homo sapiens, UniProt Q99720); details: stated in words with literature references; cited from earlier work
Sequence of σ1 receptors (Q99720 whole entry): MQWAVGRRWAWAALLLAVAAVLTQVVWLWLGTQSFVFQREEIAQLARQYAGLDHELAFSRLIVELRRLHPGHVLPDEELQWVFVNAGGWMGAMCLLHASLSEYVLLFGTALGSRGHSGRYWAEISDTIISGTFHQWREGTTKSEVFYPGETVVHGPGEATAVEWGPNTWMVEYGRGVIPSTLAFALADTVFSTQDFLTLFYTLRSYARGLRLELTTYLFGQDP

[5] = target: σ2 receptors (Homo sapiens, UniProt Q5BJF2); details: stated in words with literature references; cited from earlier work
Sequence of σ2 receptors (Q5BJF2 whole entry): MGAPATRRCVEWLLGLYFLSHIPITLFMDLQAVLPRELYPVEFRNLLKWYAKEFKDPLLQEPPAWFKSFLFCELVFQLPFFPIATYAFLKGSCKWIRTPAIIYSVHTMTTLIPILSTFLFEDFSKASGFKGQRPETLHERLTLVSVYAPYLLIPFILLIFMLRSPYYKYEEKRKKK

T1 sequence (Q60492 whole entry): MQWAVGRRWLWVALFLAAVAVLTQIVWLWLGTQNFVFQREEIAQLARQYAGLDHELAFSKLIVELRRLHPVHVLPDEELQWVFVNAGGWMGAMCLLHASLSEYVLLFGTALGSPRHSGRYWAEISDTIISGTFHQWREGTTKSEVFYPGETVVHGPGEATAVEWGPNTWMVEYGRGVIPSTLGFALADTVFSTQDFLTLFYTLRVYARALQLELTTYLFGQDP

Row | SMILES | Ki [1] [nM] | Ki [2] [nM] | Ratio (σ1/σ2) [2] | rate of washout [3] | tumor uptake [3] | affinity for σ1 receptors [4] | affinity for σ2 receptors [5]
1 | COc1cc2c(cc1OC)CN(CCCCNC(=O)c1cc(C)ccc1OCCOCCF)CC2 [6a, N-(4-(6,7-dimethoxy-3,4-dihydroisoquinolin-2(1H)-yl)butyl)-2-(2-(2-fluoroethoxy)ethoxy)-5-methylbenzamide] | 277 ± 38 | 6.75 ± 0.9 | 41 |  |  |  | 
2 | COc1cc2c(cc1OC)CN(CCCCNC(=O)c1cc(C)ccc1OCCOCCOCCF)CC2 [6b, N-(4-(6,7-dimethoxy-3,4-dihydroisoquinolin-2(1H)-yl)butyl)-2-(2-(2-(2-fluoroethoxy)ethoxy)ethoxy)-5-methylbenzamide] | 1920 | 10.1 ± 0.4 | 190 |  |  |  | 
3 | COc1cc2c(cc1OC)CN(CCCCNC(=O)c1cc(Br)ccc1OCCOCCF)CC2 [6c, 5-Bromo-N-(4-(6,7-dimethoxy-3,4-dihydroisoquinolin-2(1H)-yl)butyl)-2-(2-(2-fluoroethoxy)ethoxy)benzamide] | 1040 | 1.38 ± 0.2 | 755 | slower rate of washout | higher tumor uptake compared to the non-pegylated analog |  | 
4 | COc1cc2c(cc1OC)CN(CCCCNC(=O)c1cc(Br)ccc1OCCOCCOCCF)CC2 [6d, 5-Bromo-N-(4-(6,7-dimethoxy-3,4-dihydroisoquinolin-2(1H)-yl)butyl)-2-(2-(2-(2-fluoroethoxy)ethoxy)ethoxy)benzamide] | 1010 | 9.8 ± 0.4 | 103 | slower rate of washout | higher tumor uptake compared to the non-pegylated analog |  | 
5 | COc1cc2c(cc1OC)CN(CCCCNC(=O)c1cc(I)ccc1OCCOCCF)CC2 [6e] | 451 ± 56 | 6.29 ± 0.6 | 72 |  |  |  | 
6 | COc1cc2c(cc1OC)CN(CCCCNC(=O)c1cc(I)ccc1OCCOCCOCCF)CC2 [6f, N-(4-(6,7-dimethoxy-3,4-dihydroisoquinolin-2(1H)-yl)butyl)-2-(2-(2-(2-fluoroethoxy)ethoxy)ethoxy)-5-iodobenzamide] | 1280 | 7.47 ± 1.2 | 171 |  |  |  | 
7 | COc1cc2c(cc1OC)CN(CCCCNC(=O)c1cc(Br)cc(OC)c1OCCOCCF)CC2 [6g, 5-bromo-N-(4-(6,7-dimethoxy-3,4-dihydroisoquinolin-2(1H)-yl)butyl)-2-(2-(2-fluoroethoxy)ethoxy)-3-methoxybenzamide] | 669 ± 101 | 4.67 ± 0.6 | 143 | slower rate of washout | higher tumor uptake compared to the non-pegylated analog |  | 
8 | COc1cc2c(cc1OC)CN(CCCCNC(=O)c1cc(Br)cc(OC)c1OCCOCCOCCF)CC2 [6h] | 9100 | 33 | 276 |  |  |  | 
9 | O=C(Cc1cccc(Br)c1)NC1CCN(Cc2ccc(F)cc2)CC1 [Yun-143, N-(4-fluorobenzyl)piperidinyl-4-(3-bromophenyl)acetamide] |  |  |  |  |  | high affinity | high affinity

Reference: patent US8506927B2, “Pegylated fluorobenzamide analogues, their synthesis and use in diagnostic imaging” (Washington University, priority 2011, dated 2013)
